Measured values published in article PMC5391171 (Journal of molecular and cellular cardiology, 2016).

Tests used:
[1] = tested on: cardiac isoform of troponin; conditions: cited from earlier work
[2] = biological target: cChimera (cNTnC-cTnI [136–163] chimera) (Homo sapiens, UniProt P19429+P63316, C35S/C84S); test: NMR titration; format: binding
[3] = titration monitored by chemical shift changes

Structure (SMILES) | Binding to cChimera [2, 3] | Kd [2] [µM] | further results
C#Cc1cnc2nc(O)n(C(CC)CC)c2n1 [tirasemtiv] | – | – | activity towards the cardiac isoform of troponin [1]: no activity
c1ccc(CNCc2ccccc2)cc1 [dibenzylamine] | – | – | Binding to cChimera ([2]; addition of a methylene carbon relative to benzylaniline): completely abolished binding
O=[N+]([O-])c1cccc(Cc2ccc(Cc3cccc([N+](=O)[O-])c3)cc2)c1 [NSC89784] | NSC89784 Weak binding (very small chemical shift changes that could not be fit to a saturating curve, indicating a KD > 2 mM) | – | –
Cc1ccc(S(=O)(=O)Nc2ccc(Nc3ccccc3)cc2)cc1 [NSC41053] | NSC41053 Weak binding (very small chemical shift changes that could not be fit to a saturating curve, indicating a KD > 2 mM) | – | –
Clc1cccc(Nc2ccccc2)c1 [3-chlorodiphenylamine] | – | 10 | –
O=C(O)c1ccccc1Nc1ccccc1 [NSC215211] | – | 800 | –
